One block for each molecule: values may come before it.
Columns and labels:
[1] = Indices of Tableting Performance (Hiestand and Smith); assay type: physicochemical; conditions: bulk azithromycin; for Brittle Fracture Index (BFI): Lots 1, 2 and 4 milled (Fitzmill, 0.027" screen, knives, high speed) for this test; for Strain Index (SI) / Tensile Strength / Worst Case Bonding Index (BLw) × 10^2: Lots 1, 2 and 4 milled for this test
Protocol: Indices of tableting performance, for several azithromycin forms, were assessed to identify any mechanical deficiencies or attributes that may affect the ability to develop a direct compression tablet formulation of azithromycin. This assessment was performed in accordance with the procedures described in “Indices of Tableting Performance” H. E. N. Hiestand and D. P. Smith, Powder Technology 38 [1984] pp. 145–159.
More specifically, the Brittle Fracture Index, BFI, was calculated from the ratio of a material's regular tensile strength to its compromised tensile strength. Strain Index, SI, was determined from the dynamic indentation hardness test. Worst Case Bonding Index was determined by assessing the extent of particle bonding remaining after decompression assuming a very short compression dwell time and a plastic mechanism of particle separation during decompression.
Bulk azithromycin lots 1, 2, 4, 7, 10 and 11 are different crystalline forms, respectively, forms N, M, G, A, F and J. Lots 1, 2 and 4 were milled with a Fitzmill (Model JT, The Fitzpatrick Co., Elmhurst, Ill.) using a 0.027″ screen and knives at high speed in an attempt to match the smaller particle size of Lot 7. Lots 10 and 11 were evaluated as is due to their relatively small particle sizes.

[2] = Carr's Compressibility Index from initial and tapped density; assay type: physicochemical; conditions: for Carr's Index: blend with ˜60% drug loading
Protocol: Carr's Compressibility Index is a simple test to evaluate flowability by comparing both the initial and final (tapped) densities and the rate of packing down. A useful empirical guide to flow is given by Carr's compressibility index: Compressibility Index(%)=[(tapped density−initial density)/tapped density]×100
Carr's Compressibility Index of the azithromycin bulk was measured by taking an initial density of a 15 gram sample in a 100 ml graduated cylinder. The sample was tapped 2000 times on a VanKel Tap Density Tester (Model 50-1200, Edison, N.J.) and the tapped density of the 15 gram sample in the 100 ml graduated cylinder was taken. The procedure is described in Int. J. Pharm. Tech. & Prod. Mfr., 6(3) 10–16, 1985.
The ingredients were weighed (except for the magnesium stearate), combined and blended in a low shear blender for 30 minutes. The blend was passed through a U.S. standard No. 20 or No. 25 mesh screen to delump the blend. The screened blend was returned to the blender and blended for an additional 30 minutes. Prior to the addition of the magnesium stearate, the initial and tapped densities of the blend were determined from which a Carr's Compressibility Index for flow was calculated for the blend. Magnesium stearate was then added to the blend, after which it was blended for an additional five minutes.

Brittle Fracture Index (BFI) ([1]; listed as #1 Form N): 0.05
Strain Index (SI) ([1]; listed as #1 Form N): 0.0044
Tensile Strength ([1]; listed as #1 Form N): 0.75 Mpa
Worst Case Bonding Index (BLw) × 10^2 ([1]; listed as #1 Form N): 0.7
SMILES: CC[C@H]1OC(=O)[C@H](C)[C@@H](O[C@H]2C[C@@](C)(OC)[C@@H](O)[C@H](C)O2)[C@H](C)[C@@H](O[C@@H]2O[C@H](C)C[C@H](N(C)C)[C@H]2O)[C@](C)(O)C[C@@H](C)CN(C)[C@H](C)[C@@H](O)[C@]1(C)O [Lot 1, azithromycin]

Brittle Fracture Index (BFI) ([1]; listed as #2 Form M): 0.10
Strain Index (SI) ([1]; listed as #2 Form M): 0.0048
Tensile Strength ([1]; listed as #2 Form M): 0.79 Mpa
Worst Case Bonding Index (BLw) × 10^2 ([1]; listed as #2 Form M): 1.0
SMILES: CC[C@H]1OC(=O)[C@H](C)[C@@H](O[C@H]2C[C@@](C)(OC)[C@@H](O)[C@H](C)O2)[C@H](C)[C@@H](O[C@@H]2O[C@H](C)C[C@H](N(C)C)[C@H]2O)[C@](C)(O)C[C@@H](C)CN(C)[C@H](C)[C@@H](O)[C@]1(C)O [Lot 2, azithromycin]

Strain Index (SI) ([1]; listed as #4 Form G): 0.0043
Tensile Strength ([1]; listed as #4 Form G): 1.03 Mpa
Worst Case Bonding Index (BLw) × 10^2 ([1]; listed as #4 Form G): 0.8
SMILES: CC[C@H]1OC(=O)[C@H](C)[C@@H](O[C@H]2C[C@@](C)(OC)[C@@H](O)[C@H](C)O2)[C@H](C)[C@@H](O[C@@H]2O[C@H](C)C[C@H](N(C)C)[C@H]2O)[C@](C)(O)C[C@@H](C)CN(C)[C@H](C)[C@@H](O)[C@]1(C)O [Lot 4, azithromycin]

Carr's Compressibility Index ([2]; blend of 59.3 wt % azithromycin without glidant): 30
SMILES: CC[C@H]1OC(=O)[C@H](C)[C@@H](O[C@H]2C[C@@](C)(OC)[C@@H](O)[C@H](C)O2)[C@H](C)[C@@H](O[C@@H]2O[C@H](C)C[C@H](N(C)C)[C@H]2O)[C@](C)(O)C[C@@H](C)CN(C)[C@H](C)[C@@H](O)[C@]1(C)O [Lot 6, azithromycin]

Brittle Fracture Index (BFI) ([1]; listed as #7 Form A): 0.10
Strain Index (SI) ([1]; listed as #7 Form A): 0.0044
Tensile Strength ([1]; listed as #7 Form A): 0.99 Mpa
Worst Case Bonding Index (BLw) × 10^2 ([1]; listed as #7 Form A): 0.9
SMILES: CC[C@H]1OC(=O)[C@H](C)[C@@H](O[C@H]2C[C@@](C)(OC)[C@@H](O)[C@H](C)O2)[C@H](C)[C@@H](O[C@@H]2O[C@H](C)C[C@H](N(C)C)[C@H]2O)[C@](C)(O)C[C@@H](C)CN(C)[C@H](C)[C@@H](O)[C@]1(C)O [Lot 7, azithromycin]

Carr's Index [2]: 37
SMILES: CC[C@H]1OC(=O)[C@H](C)[C@@H](O[C@H]2C[C@@](C)(OC)[C@@H](O)[C@H](C)O2)[C@H](C)[C@@H](O[C@@H]2O[C@H](C)C[C@H](N(C)C)[C@H]2O)[C@](C)(O)C[C@@H](C)CN(C)[C@H](C)[C@@H](O)[C@]1(C)O [Lot 8, azithromycin]

Brittle Fracture Index (BFI) ([1]; listed as #10 Form F): 0.37
Strain Index (SI) ([1]; listed as #10 Form F): 0.0041
Tensile Strength ([1]; listed as #10 Form F): 1.62 Mpa
Worst Case Bonding Index (BLw) × 10^2 ([1]; listed as #10 Form F): 0.9
Carr's Index [2]: 34
SMILES: CC[C@H]1OC(=O)[C@H](C)[C@@H](O[C@H]2C[C@@](C)(OC)[C@@H](O)[C@H](C)O2)[C@H](C)[C@@H](O[C@@H]2O[C@H](C)C[C@H](N(C)C)[C@H]2O)[C@](C)(O)C[C@@H](C)CN(C)[C@H](C)[C@@H](O)[C@]1(C)O [Lot 10, azithromycin]

Brittle Fracture Index (BFI) ([1]; listed as #11 Form J): 0.11
Strain Index (SI) ([1]; listed as #11 Form J): 0.0043
Tensile Strength ([1]; listed as #11 Form J): 0.69 Mpa
Worst Case Bonding Index (BLw) × 10^2 ([1]; listed as #11 Form J): 0.7
SMILES: CC[C@H]1OC(=O)[C@H](C)[C@@H](O[C@H]2C[C@@](C)(OC)[C@@H](O)[C@H](C)O2)[C@H](C)[C@@H](O[C@@H]2O[C@H](C)C[C@H](N(C)C)[C@H]2O)[C@](C)(O)C[C@@H](C)CN(C)[C@H](C)[C@@H](O)[C@]1(C)O [Lot 11, azithromycin]

From patent publication US7070811B2, “Directly compressible formulations of azithromycin” (Pfizer Inc., priority 2001, dated 2006)
